# From ChEMBL document CHEMBL1201862, “PubChem BioAssay data set” (2004)
# The source made the active and inactive calls.
# Assays:
# Beta-lactamase [1] = target: T1, Beta-lactamase (Salmonella choleraesuis (strain SC-B67), UniProt Q5J463); assay: Epi-absorbance-based counterscreen for selective VIM-2 inhibitors: dose response biochemical high throughput screening assay to identify inhibitors of TEM-1 serine-beta-lactamase.
# Beta-lactamase [2] = target: T2, Beta-lactamase (Pseudomonas aeruginosa, UniProt Q79MP6); assay: IMP-1 metallo-beta-lactamase inhibitors, dose response, selectivity assay for VIM-2 inhibitor project, biochemical, epi-absorbance (AID 1920)
# T2 sequence (Q79MP6 whole entry): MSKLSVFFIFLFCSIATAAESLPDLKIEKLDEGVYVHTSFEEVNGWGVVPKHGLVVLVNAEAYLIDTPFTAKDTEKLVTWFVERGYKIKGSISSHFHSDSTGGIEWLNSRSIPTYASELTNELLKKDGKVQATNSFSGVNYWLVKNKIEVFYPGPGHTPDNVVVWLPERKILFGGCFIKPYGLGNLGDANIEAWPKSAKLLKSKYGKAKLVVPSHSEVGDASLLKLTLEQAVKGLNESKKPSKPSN
# Beta-lactamase [3] = target: T2, Beta-lactamase; assay: […] counterscreen for selective VIM-2 inhibitors: dose response biochemical high throughput screening assay to identify inhibitors of IMP-1 metallo-beta-lactamase.
# [4] = target: Fructose-bisphosphate aldolase (Mycobacterium tuberculosis, UniProt P9WQA3); assay: Fluorescence-based biochemical high throughput dose response assay for inhibitors of the fructose-bisphosphate aldolase (FBA) of M. tuberculosis.; assay type: functional
# Chain of Fructose-bisphosphate aldolase (P9WQA3 whole entry): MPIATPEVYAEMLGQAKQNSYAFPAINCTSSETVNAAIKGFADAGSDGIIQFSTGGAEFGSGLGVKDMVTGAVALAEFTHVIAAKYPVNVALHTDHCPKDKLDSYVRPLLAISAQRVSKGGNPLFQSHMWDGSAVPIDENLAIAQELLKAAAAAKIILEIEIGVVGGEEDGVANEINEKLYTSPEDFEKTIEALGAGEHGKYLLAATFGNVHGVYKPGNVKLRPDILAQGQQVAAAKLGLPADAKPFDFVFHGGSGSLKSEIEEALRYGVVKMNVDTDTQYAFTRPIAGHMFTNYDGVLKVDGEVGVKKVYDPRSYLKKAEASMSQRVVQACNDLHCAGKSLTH
# [5] = inhibitors of firefly luciferase expression or activity, dose response, H4 neuroglioma cells, luminescence (AID 1990); assay type: functional, cell-based
# [6] = Luminescence Cell-Based Dose Response HTS to Identify Inhibitors of 5'UTR Stem-Loop Driven Prion Protein mRNA Translation in H4 Neuroglioblastoma Cells. [Related pubchem assays: 1827 (Project Summary), 1813 (Primary HTS)]; assay type: functional
# [7] = target: T3, Voltage-gated N-type calcium channel alpha-1B subunit/Amyloid beta A4 precursor protein-binding family A member 1 (Homo sapiens, UniProt Q00975+Q02410); assay type: protein assay
# T3 sequence (Q00975 whole entry): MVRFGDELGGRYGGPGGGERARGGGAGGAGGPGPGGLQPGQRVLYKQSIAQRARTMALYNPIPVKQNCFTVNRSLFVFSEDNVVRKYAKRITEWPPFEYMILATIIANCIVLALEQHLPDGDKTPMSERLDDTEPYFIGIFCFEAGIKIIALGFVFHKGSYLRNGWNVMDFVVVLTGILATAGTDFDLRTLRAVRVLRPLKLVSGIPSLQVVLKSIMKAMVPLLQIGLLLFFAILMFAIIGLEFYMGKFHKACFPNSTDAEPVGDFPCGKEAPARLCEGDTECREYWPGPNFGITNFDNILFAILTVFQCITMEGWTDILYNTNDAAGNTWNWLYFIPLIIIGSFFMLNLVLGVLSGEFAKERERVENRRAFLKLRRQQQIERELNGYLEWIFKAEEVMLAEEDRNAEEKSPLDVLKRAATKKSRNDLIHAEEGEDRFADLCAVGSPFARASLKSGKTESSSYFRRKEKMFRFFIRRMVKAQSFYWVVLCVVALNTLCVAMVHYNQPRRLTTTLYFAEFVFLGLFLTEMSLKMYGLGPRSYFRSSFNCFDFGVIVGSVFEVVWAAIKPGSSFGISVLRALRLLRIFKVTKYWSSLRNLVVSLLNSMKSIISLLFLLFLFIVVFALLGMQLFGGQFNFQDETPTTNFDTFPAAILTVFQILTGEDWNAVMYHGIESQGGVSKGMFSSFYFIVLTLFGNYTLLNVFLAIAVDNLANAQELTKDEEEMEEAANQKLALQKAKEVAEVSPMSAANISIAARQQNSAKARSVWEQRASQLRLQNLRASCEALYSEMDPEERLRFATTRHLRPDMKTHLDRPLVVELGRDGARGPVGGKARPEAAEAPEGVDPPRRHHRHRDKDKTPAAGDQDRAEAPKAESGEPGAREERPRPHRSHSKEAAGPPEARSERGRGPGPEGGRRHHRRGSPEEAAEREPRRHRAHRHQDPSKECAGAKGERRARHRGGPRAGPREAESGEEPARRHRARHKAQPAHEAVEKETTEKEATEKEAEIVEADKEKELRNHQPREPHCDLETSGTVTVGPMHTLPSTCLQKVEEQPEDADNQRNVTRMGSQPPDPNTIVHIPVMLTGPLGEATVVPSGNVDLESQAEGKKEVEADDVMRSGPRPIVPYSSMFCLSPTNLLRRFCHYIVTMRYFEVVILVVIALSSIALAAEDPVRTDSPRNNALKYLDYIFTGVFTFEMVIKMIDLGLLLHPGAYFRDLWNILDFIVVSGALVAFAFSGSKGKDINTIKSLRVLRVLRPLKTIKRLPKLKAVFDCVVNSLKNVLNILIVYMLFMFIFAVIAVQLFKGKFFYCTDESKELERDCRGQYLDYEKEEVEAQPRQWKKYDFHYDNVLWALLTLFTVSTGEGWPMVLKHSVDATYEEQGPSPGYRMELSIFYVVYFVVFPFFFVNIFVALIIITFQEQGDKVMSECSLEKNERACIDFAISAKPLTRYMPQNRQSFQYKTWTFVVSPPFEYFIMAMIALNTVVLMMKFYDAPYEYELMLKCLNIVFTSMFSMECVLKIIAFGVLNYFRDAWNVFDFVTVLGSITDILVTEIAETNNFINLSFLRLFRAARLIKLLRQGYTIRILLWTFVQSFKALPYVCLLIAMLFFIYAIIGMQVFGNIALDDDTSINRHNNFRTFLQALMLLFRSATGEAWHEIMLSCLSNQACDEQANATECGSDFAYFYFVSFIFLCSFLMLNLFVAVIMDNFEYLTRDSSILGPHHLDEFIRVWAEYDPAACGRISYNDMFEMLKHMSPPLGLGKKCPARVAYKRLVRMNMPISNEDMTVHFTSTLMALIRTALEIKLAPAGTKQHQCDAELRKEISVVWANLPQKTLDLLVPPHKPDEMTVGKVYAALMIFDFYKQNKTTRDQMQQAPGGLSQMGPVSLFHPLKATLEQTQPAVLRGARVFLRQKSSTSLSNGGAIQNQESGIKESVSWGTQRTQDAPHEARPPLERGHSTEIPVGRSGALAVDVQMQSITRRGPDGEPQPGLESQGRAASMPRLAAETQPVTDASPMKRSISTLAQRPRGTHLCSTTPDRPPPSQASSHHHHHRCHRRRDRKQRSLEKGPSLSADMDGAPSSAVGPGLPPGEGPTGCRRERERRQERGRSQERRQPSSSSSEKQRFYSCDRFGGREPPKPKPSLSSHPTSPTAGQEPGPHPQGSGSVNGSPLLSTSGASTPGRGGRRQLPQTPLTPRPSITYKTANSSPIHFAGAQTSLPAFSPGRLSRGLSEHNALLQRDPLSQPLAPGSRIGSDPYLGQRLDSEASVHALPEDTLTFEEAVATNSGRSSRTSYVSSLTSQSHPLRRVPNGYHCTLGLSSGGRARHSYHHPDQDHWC
# T3 sequence (Q02410 whole entry): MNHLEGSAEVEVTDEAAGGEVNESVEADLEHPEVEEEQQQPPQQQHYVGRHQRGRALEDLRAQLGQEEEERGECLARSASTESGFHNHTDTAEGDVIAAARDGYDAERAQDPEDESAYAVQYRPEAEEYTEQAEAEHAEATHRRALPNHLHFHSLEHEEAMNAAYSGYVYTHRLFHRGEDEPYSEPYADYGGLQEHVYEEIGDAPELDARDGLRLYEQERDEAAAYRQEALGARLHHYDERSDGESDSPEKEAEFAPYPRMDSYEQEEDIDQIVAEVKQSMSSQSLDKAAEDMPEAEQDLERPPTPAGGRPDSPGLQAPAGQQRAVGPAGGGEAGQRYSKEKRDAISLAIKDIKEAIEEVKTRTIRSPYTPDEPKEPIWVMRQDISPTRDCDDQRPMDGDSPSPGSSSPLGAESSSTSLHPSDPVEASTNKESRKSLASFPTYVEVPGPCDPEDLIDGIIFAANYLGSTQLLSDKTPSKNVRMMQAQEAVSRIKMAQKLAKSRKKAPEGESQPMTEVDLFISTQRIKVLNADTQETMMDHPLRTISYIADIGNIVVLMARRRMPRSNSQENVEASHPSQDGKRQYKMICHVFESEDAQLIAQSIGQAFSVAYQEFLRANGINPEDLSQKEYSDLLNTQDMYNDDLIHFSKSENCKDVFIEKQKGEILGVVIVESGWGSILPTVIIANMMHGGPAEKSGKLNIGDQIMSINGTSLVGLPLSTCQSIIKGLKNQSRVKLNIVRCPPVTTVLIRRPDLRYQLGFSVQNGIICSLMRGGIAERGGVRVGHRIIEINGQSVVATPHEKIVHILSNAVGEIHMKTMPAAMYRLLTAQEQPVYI
# [8] = inhibitors of SNCA 5'UTR-driven reporter translation, confirmation, H4 neuroglioma cells, luminescence (AID 1988); assay type: functional, cell-based
# [9] = target: T3, Voltage-gated N-type calcium channel alpha-1B subunit/Amyloid beta A4 precursor protein-binding family A member 1; assay type: protein assay; remark: listed apart in the source
# [10] = HEK293T cell cytotoxicity, dose response, cytotoxicity control for HIV Vif inhibitor project, cherry-picks (AID 652208); assay type: functional, cell-based
# Beta-lactamase [11] = target: T2, Beta-lactamase
# Beta-lactamase [12] = target: T1, Beta-lactamase
# Exodeoxyribonuclease V = target: T4, Exodeoxyribonuclease V (Escherichia coli (strain K12), UniProt P04993+P07648+P08394); assay: E. coli RecBCD inhibitors, dose response, counter-screen for AddAB inhibitor project, absorbance, V66 E. coli, mutant T4 phage (AID 492957); assay type: functional, cell-based, Escherichia coli str. K-12 substr. MG1655
# T4 sequence (P04993 whole entry): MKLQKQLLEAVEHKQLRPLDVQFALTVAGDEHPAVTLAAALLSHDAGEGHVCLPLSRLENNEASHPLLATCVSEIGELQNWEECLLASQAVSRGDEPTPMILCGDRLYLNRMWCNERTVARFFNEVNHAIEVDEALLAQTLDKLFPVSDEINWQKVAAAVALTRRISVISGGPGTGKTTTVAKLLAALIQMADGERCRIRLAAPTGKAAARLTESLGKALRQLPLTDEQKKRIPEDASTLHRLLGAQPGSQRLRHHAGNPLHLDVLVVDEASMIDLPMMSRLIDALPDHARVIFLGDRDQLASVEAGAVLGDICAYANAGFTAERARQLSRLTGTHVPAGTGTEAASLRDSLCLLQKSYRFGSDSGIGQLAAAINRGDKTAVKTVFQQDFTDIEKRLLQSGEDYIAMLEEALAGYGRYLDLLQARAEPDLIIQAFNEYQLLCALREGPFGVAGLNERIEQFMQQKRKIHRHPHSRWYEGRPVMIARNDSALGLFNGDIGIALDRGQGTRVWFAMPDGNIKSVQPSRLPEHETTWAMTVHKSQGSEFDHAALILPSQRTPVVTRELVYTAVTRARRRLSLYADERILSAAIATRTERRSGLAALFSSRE
# T4 sequence (P07648 whole entry): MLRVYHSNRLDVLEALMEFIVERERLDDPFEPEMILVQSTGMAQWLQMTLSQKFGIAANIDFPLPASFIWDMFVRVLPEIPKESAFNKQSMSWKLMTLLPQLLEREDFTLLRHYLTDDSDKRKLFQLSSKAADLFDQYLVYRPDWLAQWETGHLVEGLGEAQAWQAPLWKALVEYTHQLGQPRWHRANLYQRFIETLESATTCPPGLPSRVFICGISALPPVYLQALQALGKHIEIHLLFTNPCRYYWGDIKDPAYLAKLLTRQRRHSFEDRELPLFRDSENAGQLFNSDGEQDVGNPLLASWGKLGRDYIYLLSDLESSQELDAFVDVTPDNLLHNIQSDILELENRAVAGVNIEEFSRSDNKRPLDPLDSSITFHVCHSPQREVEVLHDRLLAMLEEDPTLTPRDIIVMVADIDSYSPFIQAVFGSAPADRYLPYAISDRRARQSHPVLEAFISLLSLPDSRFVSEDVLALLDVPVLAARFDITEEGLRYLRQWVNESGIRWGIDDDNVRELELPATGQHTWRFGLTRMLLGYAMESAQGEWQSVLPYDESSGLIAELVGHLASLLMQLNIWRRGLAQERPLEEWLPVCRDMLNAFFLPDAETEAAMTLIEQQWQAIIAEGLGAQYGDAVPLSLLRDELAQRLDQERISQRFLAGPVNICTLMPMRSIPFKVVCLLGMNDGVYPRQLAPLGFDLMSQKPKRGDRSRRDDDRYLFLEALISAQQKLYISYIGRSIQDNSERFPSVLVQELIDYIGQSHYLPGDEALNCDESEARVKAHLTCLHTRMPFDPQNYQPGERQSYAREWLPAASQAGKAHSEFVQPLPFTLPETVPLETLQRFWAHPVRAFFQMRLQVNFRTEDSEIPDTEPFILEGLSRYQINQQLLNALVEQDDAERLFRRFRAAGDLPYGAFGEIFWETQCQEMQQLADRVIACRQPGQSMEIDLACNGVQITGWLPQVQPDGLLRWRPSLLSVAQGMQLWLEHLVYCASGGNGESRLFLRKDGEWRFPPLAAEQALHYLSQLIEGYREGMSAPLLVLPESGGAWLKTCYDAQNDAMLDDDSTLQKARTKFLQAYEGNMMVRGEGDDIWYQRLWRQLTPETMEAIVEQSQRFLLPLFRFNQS
# T4 sequence (P08394 whole entry): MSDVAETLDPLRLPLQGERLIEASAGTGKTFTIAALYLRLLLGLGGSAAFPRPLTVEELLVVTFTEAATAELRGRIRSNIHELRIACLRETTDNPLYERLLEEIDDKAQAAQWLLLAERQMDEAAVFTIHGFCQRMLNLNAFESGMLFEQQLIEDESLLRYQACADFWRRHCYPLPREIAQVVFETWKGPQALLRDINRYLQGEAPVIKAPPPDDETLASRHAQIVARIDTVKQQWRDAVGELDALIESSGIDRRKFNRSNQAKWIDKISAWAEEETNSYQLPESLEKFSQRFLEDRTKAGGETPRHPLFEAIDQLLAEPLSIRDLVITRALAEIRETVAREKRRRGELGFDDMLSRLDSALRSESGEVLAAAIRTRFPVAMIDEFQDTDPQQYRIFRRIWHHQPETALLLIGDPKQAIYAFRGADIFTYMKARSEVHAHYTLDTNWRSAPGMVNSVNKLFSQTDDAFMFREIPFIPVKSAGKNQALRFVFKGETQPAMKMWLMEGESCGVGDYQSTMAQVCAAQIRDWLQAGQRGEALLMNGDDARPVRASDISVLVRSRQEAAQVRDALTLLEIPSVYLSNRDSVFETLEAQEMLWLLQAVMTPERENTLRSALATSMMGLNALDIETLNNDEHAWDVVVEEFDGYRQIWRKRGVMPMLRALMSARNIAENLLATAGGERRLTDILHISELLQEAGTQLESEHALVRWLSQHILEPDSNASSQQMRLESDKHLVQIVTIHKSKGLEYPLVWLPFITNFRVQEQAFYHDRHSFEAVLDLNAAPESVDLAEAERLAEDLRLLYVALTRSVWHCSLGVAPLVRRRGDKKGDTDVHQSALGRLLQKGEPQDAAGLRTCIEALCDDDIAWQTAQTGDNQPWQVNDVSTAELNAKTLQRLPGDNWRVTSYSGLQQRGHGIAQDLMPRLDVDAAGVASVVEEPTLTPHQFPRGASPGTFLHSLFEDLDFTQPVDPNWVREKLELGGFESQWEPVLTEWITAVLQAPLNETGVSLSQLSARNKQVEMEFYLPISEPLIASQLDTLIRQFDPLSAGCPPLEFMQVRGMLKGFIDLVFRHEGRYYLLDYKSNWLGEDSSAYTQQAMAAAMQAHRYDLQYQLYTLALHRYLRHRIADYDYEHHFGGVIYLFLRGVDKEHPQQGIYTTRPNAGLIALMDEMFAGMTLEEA
# [13] = Counterscreen for AddAB inhibitors: absorbance-based bacterial cell-based high throughput dose response assay for inhibitors of bacterial viability. [Related pubchem assays (depositor defined):AID435030, AID449728, AID449731, AID488942, AID488955, AID488956]; assay type: functional
# Albumin = Albumin (Bos taurus, UniProt P02769); assay: Counterscreen for inhibitors of T-cell receptor (TCR)-CD3 interaction: Fluorescence-based biochemical high throughput dose response assay to identify inhibitors of T-cell receptor (TCR)-CD3 interaction using a TAMRA-labeled BSA probe.; assay type: functional
# [14] = intracellular Trypanosoma cruzi inhibitors in host cells – cell-based, plate reader, cherry-pick samples, set 3, dose response (AID 651818); assay type: functional;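 note: compounds incubated with infected cells for about four days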
# HeLa = assay: HeLa cell cytotoxicity, dose response, cytotoxicity control, ATP luminescence, cherry-pick samples (AID 687004); assay type: functional, cell-based; details: Homo sapiens
# HEK293 = assay: HEK293T cell cytotoxicity, dose response, cytotoxicity control, ATP luminescence, cherry-pick samples (AID 687005); assay type: functional, cell-based; details: Homo sapiens;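 note: cells exposed to compound for 48 hours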
# [15] = HEK293 Cytotoxicity Assay Measured in Cell-Based System Using Plate Reader - 7071-01_Inhibitor_Dose_CherryPick_Activity_Set2.; assay type: functional
# [16] = target: T5, Scavenger receptor class B member 1 (Mus musculus, UniProt Q61009); assay: inhibitors of SR-BI dependent HDL uptake, dose response, ldlA[mSR-BI] CHO cells, fluorescence plate reader, dry powder, set 9 (AID 623880); assay type: functional, cell-based
# T5 sequence (Q61009 whole entry): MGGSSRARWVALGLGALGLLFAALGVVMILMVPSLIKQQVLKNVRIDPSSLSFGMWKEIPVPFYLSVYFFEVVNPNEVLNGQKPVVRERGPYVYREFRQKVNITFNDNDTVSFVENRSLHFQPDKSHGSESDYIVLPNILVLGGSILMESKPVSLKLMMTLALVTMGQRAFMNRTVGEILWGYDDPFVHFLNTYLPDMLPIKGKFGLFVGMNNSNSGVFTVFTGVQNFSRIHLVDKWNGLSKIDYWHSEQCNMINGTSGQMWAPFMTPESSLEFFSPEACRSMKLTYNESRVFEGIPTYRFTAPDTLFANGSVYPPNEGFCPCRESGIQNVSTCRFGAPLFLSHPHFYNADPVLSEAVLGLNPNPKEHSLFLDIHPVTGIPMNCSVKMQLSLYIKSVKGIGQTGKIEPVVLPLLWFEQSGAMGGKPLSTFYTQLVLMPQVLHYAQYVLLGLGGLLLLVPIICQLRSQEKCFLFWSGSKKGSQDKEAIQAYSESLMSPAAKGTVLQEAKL
# [17] = cytotoxicity in ldlA[mSR-BI] CHO cells, dose response, cytotoxicity control for SR-BI HDL uptake inhibitor project, cell-based, CellTiter-Glo, 24 h, powder samples, set 7 (AID 624026); assay type: functional
# [18] = target: T5, Scavenger receptor class B member 1; assay: inhibitors of SR-BI-mediated HDL uptake, dose response, cell-based, ldlA[mSR-BI] CHO, DiI fluorescence, dry powder, set 10 (AID 624029); assay type: functional
# [19] = target: Photoreceptor-specific nuclear receptor (Homo sapiens, UniProt Q9Y5X4); assay type: functional, cell-based;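 note: CHO-S cells with Gal4-NCOR and VP16-NR2E3 two-hybrid luciferase reporter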
# [20] = inhibitors of HIV Env-driven cell fusion, dose response, cherry-pick (AID 652057); assay type: functional, cell-based
# [21] = CEM21 lymphoblast cell cytotoxicity, dose response, cytotoxicity control for viral fusion inhibitor project, CellTiter-Glo luminescence, cherry-picked (AID 652042); assay type: functional, cell-based;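 note: potency for signal decrease meaning cytotoxicity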
# [22] = ZM109 Env clade C HIV-1 fusion inhibitors, dose response, HeLa effector, CEM target cells, luciferase, cherry-pick (AID 652058); assay type: functional, cell-based
# Paired box protein Pax-8 = Paired box protein Pax-8 (Homo sapiens, UniProt Q06710); assay: inhibitors of PAX8-driven TPO luciferase reporter, dose response, RMG-I cells, cherry-pick (AID 687027); assay type: functional, cell-based;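 note: luciferase reporter driven by Pax8 target thyroperoxidase promoter measured by SteadyGlo luminescence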
# Chain of Paired box protein Pax-8 (Q06710 whole entry, the tested form may be a part): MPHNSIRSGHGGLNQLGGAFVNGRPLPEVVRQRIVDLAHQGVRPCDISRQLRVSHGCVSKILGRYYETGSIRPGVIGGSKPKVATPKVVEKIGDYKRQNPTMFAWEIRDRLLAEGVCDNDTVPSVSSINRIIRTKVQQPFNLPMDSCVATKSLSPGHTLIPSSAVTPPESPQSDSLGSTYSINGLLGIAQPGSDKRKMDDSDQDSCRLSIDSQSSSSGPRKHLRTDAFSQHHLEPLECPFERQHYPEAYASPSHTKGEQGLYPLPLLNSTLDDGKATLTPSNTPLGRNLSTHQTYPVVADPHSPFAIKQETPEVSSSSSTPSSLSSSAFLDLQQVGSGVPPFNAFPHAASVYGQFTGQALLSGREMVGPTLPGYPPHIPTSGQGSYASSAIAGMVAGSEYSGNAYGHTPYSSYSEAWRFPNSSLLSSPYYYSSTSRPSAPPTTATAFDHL
# [23] = off-target signal loss in HeLa-CEM21 co-culture – HeLa F-luc CTL cells, cherry-picked, counter-screen for HIV-1 Env fusion inhibitor project, dose response (AID 652040); assay type: functional, cell-based;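 note: potency for signal decrease marking cytotoxic or nonspecific inhibition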
# [24] = inhibitors of clade B AD8 Env fusion, dose response, cell-based, cherry-pick (AID 652062); assay type: functional;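 note: luciferase signal from cell-cell fusion driven by HIV-1 clade B AD8 Env; potency is for inhibitors of fusion seen as a drop in luminescence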
# [25] = inhibitors of CMV-promoter luciferase reporter, dose response, counter-screen for Pax8 inhibitor project, cell-based, HEK293, luminescence, dry powder (AID 743020); assay type: functional
# T1 sequence (Q5J463 whole entry): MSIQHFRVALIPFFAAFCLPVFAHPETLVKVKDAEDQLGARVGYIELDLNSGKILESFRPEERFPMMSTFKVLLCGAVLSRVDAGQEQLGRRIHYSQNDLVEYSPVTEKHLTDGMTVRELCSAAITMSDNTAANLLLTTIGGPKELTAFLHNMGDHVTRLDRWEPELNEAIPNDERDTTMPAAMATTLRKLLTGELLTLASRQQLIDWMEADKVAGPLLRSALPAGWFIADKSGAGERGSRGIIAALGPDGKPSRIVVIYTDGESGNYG
structure (smiles),measurement,setting,value
CC(=O)c1ccc(-c2ccc(Cn3c(C)nc4cc(N)c(C)nc43)cc2)cc1,IC50,Beta-lactamase [1],> 59.6 µM (inactive)
same,IC50,Beta-lactamase [2],> 59.6 µM (inactive)
same,IC50,Beta-lactamase [3],> 59.6 µM (inactive)
CCCNC(=O)c1c(N)n(-c2ccc(S(N)(=O)=O)cc2)c2nc3ccccc3nc12,IC50,[4],0.673 µM (active)
CCOC(=O)c1cc(-c2ccccc2)sc1NC(=O)COC(=O)c1cccc(S(N)(=O)=O)c1,EC50,[5],13.4 µM (active)
same,EC50,[6],> 120 µM (not active)
same,IC50,[7],4.51 µM (active)
same,EC50,[8],12.8 µM (active)
same,IC50,[9],> 50 µM (inactive)
same,AC50,[10],21.3 µM (active)
CCN(CC)c1ccc2cc(C=O)c(=O)oc2c1,IC50,Beta-lactamase [11],57.9 µM (inactive)
same,IC50,Beta-lactamase [12],26.7 µM (inactive)
COc1ccc(/C=C2\SC(=O)N(CC(=O)NNC(=O)c3ccccc3O)C2=O)cc1OC,IC50,Exodeoxyribonuclease V,> 119 µM (inactive)
same,IC50,[13],> 119 µM (inactive)
same,IC50,Albumin,> 94.1 µM (inactive)
C[C@H](CO)N1C[C@H](C)[C@H](CN(C)Cc2ccc(-c3ccccc3)cc2)Oc2c(NC(=O)c3ccncc3)cccc2C1=O,AC50,[14],0.08 µM (active)
same,AC50,HeLa,> 52 µM (inactive)
same,AC50,HEK293,14.2 µM (active)
same,AC50,[15],14.2 µM (active)
CC(C)(C)OC(=O)N1CCN(c2ccc(NC(=O)c3cc([N+](=O)[O-])ccc3Cl)cc2)CC1,AC50,[16],0.503 µM (active)
same,AC50,[17],> 70 µM (inactive)
same,AC50,[18],0.953 µM (active)
CCC1(O)C(=O)OCc2c1cc1n(c2=O)Cc2cc3c(N)cccc3nc2-1 (stereo not given) [RS-9-Aminocamptothecin],IC50,[19],1.83 µM (active)
same,AC50,[20],< 0.26 µM (active)
same,AC50,[21],2.67 µM (active)
same,AC50,[22],0.857 µM (active)
same,AC50,Paired box protein Pax-8,< 0.26 µM (active)
same,AC50,[23],< 0.26 µM (active)
same,AC50,[24],0.368 µM (active)
same,AC50,[25],< 6.17 µM (active)
